According to patent publication US20260242395A1, “AMINOHETEROARYL KINASE INHIBITORS” (ALLORION THERAPEUTICS INC, priority 2022, published 2026):

What was measured:
Type in all cases: biochemical
CDK1/CyclinB = target: T1, CDK1/CyclinB (Homo sapiens, UniProt P06493); assay: CDK1/CyclinB kinase inhibitory activity (Caliper mobility shift); details: enzyme 3 nM, ATP 20 μM, 28° C. 30 min; read-out: CDK1/Cyclin B1 IC50
T1 construct: purchased Millipore 14-450M
Description: CDK1/CyclinB kinase inhibitory activity (IC50): 5 μl of various dilutions of test compound in 1× kinase buffer (50 mM HEPES pH 7.5, 10 mM MgCl2, 2 mM DTT and 0.01% Brij-35) was mixed with 10 μL of CDK1/CyclinB (Millipore, 14-450M #, final concentration 3 nM in 1× Kinase buffer) in 384 plates and incubated at room temperature for 10 min. To initiate each reaction, 10 μL of peptide solution containing fluorescently-labeled-peptide 18(5-FAM-QSPKKG-CONH2) (GL, 114202 #, final concentration 3000 nM) and ATP (final concentration 20 μM) in 1× Kinase buffer was added to each of the wells containing test compound and CDK1/CyclinB mixture. The reaction is then allowed to proceed at 28° C. for 30 min and terminated by the addition of 25 μL stop buffer (100 mM HEPES pH 7.5, 50 mM EDTA, 0.2% Coating Reagent #3 (Perkin Elmer, 760050 #) and 0.015% Brij-35).
(§1) Following the kinase reaction, Caliper EZ reader II (Downstream voltages: −500V, Upstream voltages: −2250V, Base pressure −0.5 PSI, Screen pressure −1.2 PSI) was used to separate the phosphorylated (product) and the unphosphorylated (substrate) fluorescently-labeled peptide 18 based on their different mobility. Both substrate and product were measured and the ratio of these values were used to generate % conversion by Caliper EZ reader II. These conversion values were then transformed into % inhibition of kinase activity using the formula: % Inhibition=[(MA−X)/(MA−MI)]×100% where MA=conversion value of DMSO only controls, MI=conversion value of no enzyme controls and X=conversion value at any given compound dose. IC50 values were then calculated by plotting dose-response curves and then using the XLfit application in Excel software.

CDK7/CyclinH/MAT1 = target: T2, CDK7/CyclinH/MAT1 (Homo sapiens, UniProt P50613); assay: CDK7/CyclinH/MAT1 kinase inhibitory activity (Caliper mobility shift); details: enzyme 12.5 nM, ATP 70 μM, 28° C. 30 min; read-out: CDK7/Cyclin H/MAT1 IC50
T2 construct: purchased Millipore 14-476M
Description: (§2) CDK7/CyclinH/MAT1 kinase inhibitory activity (IC50): 5 μl of various dilutions of test compound in 1× kinase buffer (20 mM HEPES, pH 7.5, 10 mM MgCl2, 2 mM DTT and 0.01% Triton X-100) was mixed with 10 μL of CDK7/CyclinH/MAT1 (Millipore, 14-476M #, final concentration 12.5 nM in 1× Kinase buffer) in 384 plates and incubated at room temperature for 10 min. To initiate each reaction, 10 μL of peptide solution containing fluorescently-labeled-peptide CTD3 (5-FAM-[…], GL, SY346885 #, final concentration 3000 nM) and ATP (final concentration 70 μM) in 1× Kinase buffer was added to each of the wells containing test compound and CDK7/CyclinH/MAT1 mixture. The reaction is then allowed to proceed at 28° C. for 30 min and terminated by the addition of 25 μL stop buffer (100 mM HEPES pH 7.5, 50 mM EDTA, 0.2% Coating Reagent #3 (Perkin Elmer, 760050 #) and 0.015% Brij-35).
as §1, with “the phosphoiylated” for “the phosphorylated”, “peptide CTD3” for “peptide 18”

CDK9/CyclinT1 = target: T3, CDK9/CyclinT1 (Homo sapiens, UniProt P50750); assay: CDK9/CyclinT1 kinase inhibitory activity (Caliper mobility shift); details: enzyme 12.5 nM, ATP 10M, 28° C. 30 min; read-out: CDK9/Cyclin T1 IC50
T3 construct: purchased Millipore 14-685M
Description: as §2, with “CDK9/CyclinT1” for “CDK7/CyclinH/MAT1”, “14-685M” for “14-476M”, “fluorescently-labeled -peptide” for “fluorescently-labeled-peptide”, “[…])” for “70 μM)”
as §1, with “CTD3” for “18”

T2 sequence (P50613 whole entry): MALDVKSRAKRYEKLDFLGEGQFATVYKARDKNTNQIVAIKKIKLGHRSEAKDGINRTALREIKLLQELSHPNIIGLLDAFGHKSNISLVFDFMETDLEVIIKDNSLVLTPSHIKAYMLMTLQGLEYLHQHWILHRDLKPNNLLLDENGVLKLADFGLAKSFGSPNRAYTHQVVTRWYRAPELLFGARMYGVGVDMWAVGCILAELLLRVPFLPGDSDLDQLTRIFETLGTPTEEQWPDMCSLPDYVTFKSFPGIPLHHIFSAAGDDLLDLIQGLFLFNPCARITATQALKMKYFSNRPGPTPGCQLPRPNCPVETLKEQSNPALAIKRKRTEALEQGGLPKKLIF
T2 sequence (P51946 whole entry partner): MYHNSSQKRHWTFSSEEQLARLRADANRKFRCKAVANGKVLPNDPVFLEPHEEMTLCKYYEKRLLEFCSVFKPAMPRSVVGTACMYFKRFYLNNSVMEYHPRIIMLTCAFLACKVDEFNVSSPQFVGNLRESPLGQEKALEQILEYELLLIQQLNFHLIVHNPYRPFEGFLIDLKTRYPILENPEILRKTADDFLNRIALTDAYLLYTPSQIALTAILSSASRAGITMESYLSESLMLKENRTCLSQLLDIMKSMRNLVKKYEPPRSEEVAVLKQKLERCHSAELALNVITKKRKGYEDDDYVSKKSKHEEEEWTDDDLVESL
T2 sequence (P51948 whole entry partner): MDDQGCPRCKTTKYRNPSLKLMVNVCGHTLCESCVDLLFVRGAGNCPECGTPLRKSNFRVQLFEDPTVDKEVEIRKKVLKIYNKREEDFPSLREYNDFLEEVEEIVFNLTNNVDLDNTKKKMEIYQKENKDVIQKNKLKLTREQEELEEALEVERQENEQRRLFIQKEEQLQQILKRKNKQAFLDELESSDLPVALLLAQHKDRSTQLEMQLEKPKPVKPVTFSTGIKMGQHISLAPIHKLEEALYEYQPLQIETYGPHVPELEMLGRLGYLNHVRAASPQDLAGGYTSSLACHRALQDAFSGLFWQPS
T1 sequence (P06493 whole entry): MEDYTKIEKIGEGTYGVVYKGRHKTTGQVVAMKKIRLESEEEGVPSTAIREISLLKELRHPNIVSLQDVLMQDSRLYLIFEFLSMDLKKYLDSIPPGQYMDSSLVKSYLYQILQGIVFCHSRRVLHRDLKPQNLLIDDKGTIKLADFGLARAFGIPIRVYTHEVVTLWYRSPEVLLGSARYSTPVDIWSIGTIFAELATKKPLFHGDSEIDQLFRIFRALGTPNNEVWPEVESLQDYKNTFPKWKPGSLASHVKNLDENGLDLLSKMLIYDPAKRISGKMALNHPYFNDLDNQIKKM
T1 sequence (P14635 whole entry partner): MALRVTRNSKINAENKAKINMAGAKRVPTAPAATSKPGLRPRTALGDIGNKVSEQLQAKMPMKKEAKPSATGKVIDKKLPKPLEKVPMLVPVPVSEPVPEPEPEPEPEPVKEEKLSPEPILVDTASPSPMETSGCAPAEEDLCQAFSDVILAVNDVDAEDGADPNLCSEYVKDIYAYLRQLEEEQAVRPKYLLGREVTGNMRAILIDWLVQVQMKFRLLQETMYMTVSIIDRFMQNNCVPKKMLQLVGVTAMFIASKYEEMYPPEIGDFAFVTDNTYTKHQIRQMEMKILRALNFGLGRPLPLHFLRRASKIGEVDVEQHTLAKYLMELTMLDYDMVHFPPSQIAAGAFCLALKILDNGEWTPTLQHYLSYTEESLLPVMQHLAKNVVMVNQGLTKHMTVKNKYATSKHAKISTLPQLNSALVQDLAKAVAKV
T3 sequence (P50750 whole entry): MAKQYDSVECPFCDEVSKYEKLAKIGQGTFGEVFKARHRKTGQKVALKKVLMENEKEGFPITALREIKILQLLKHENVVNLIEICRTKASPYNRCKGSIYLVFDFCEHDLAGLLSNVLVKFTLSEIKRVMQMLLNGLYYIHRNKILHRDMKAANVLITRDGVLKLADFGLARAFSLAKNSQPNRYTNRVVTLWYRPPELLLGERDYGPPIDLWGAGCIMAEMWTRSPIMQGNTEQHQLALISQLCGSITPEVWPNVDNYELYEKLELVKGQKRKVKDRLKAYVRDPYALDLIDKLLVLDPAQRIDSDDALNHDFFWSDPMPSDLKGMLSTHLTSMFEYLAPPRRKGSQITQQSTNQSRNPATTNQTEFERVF
T3 sequence (O60563 whole entry partner): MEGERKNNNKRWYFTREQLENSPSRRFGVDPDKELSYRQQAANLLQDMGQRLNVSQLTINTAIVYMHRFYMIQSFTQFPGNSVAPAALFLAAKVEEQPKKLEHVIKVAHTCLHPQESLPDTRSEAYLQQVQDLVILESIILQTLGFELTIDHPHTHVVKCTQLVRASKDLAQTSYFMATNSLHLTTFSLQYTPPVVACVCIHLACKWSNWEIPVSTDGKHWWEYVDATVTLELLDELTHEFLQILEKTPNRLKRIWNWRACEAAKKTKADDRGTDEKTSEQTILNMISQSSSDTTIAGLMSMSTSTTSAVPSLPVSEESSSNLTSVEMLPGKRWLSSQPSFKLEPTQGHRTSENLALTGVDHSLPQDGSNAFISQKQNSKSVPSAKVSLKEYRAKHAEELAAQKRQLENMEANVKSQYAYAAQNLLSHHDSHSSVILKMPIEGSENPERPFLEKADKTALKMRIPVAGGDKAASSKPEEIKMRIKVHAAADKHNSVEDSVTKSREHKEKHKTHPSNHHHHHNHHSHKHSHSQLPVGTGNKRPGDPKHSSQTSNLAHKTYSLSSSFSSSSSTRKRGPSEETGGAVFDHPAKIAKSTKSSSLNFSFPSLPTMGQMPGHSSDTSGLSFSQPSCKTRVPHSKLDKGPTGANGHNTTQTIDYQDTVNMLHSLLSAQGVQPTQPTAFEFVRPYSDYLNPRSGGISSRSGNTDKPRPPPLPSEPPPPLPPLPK

Structure (SMILES) | IC50 (CDK1/CyclinB) | IC50 (CDK7/CyclinH/MAT1) | IC50 (CDK9/CyclinT1)
[2H]c1nc2c(F)cc(-c3nc(N[C@@H]4CCOC[C@H]4O)ncc3C)cc2c2c1CC1(CC1)NC2 [Example 67] | ≥ 1 µM | ≥ 1 µM | 0.1 to 1 µM
CC1Cc2cnc3c(F)cc(-c4nc(N[C@@H]5CCOC[C@H]5O)ncc4Cl)cc3c2CN1 (single isomer, unassigned) [Example 34b] | ≥ 1 µM | ≥ 1 µM | 0.1 to 1 µM
CC1(C)Cc2cnc3c(F)cc(-c4nc(N[C@@H]5CCOC[C@H]5O)ncc4Cl)cc3c2CN1 [Example 30] | 0.1 to 1 µM | ≥ 1 µM | 0.01 to 0.1 µM
CC1(C)Cc2cnc3c(F)cc(-c4nc(N[C@@H]5CCOC[C@H]5O)ncc4C#N)cc3c2CN1 [Example 49] | ≥ 1 µM | ≥ 1 µM | 0.1 to 1 µM
[2H]c1nc(N[C@@H]2CCOC[C@H]2O)nc(-c2cc(F)c3nc([2H])c4c(c3c2)CNC2(CC2)C4)c1Cl [Example 68] | 0.1 to 1 µM | 0.1 to 1 µM | 0.1 to 1 µM
Cc1c(C(C)(C)O)cnc2c(C)cc(-c3nc(N[C@@H]4CCOC[C@H]4O)ncc3Cl)cc12 [Example 58] | ≥ 1 µM | ≥ 1 µM | ≥ 1 µM
Cc1nc2c(F)cc(-c3nc(N[C@@H]4CCOC[C@H]4O)ncc3Cl)cc2cc1C(C)(C)O [Example 5, (3S,4R)-4-((5-chloro-4-(8-fluoro-3-(2-hydroxypropan-2-yl)-2-methylquinolin-6-yl)pyrimidin-2-yl)amino)tetrahydro-2H-pyran-3-ol] | ≥ 1 µM | ≥ 1 µM | 0.1 to 1 µM
CC(C)(O)c1cnc2c(F)cc(-c3nc(N[C@@H]4CCOC[C@H]4O)ncc3Cl)cc2c1Cl [Example 17, (3S,4R)-4-((5-chloro-4-(4-chloro-8-fluoro-3-(2-hydroxypropan-2-yl)quinolin-6-yl)pyrimidin-2-yl)amino)tetrahydro-2H-pyran-3-ol] | 0.1 to 1 µM | ≥ 1 µM | 0.1 to 1 µM
CC(C)(O)c1cnc2c(F)cc(-c3nc(N[C@@H]4CCOC[C@H]4O)ncc3Cl)cc2c1 [Example 1, (3S,4R)-4-((5-chloro-4-(8-fluoro-3-(2-hydroxypropan-2-yl)quinolin-6-yl)pyrimidin-2-yl)amino)tetrahydro-2H-pyran-3-ol] | ≥ 1 µM | ≥ 1 µM | ≥ 1 µM
Cc1nc2c(F)cc(-c3nc(N[C@@H]4CCOC[C@H]4O)ncc3F)cc2c2c1CC1(CC1)NC2 [Example 65] | 0.1 to 1 µM | 0.1 to 1 µM | 0.1 to 1 µM
[2H]c1nc2c(F)cc(-c3nc(N[C@@H]4CCOC[C@H]4O)ncc3Cl)cc2c2c1CC(C)(C)NC2 [Example 100] | 0.1 to 1 µM | 0.1 to 1 µM | 0.01 to 0.1 µM
[2H]c1nc(N[C@@H]2CCOC[C@H]2O)nc(-c2cc(F)c3nc(C)c(C(C)(C)O)cc3c2)c1F [Example 83] | 0.1 to 1 µM | 0.1 to 1 µM | 0.1 to 1 µM
CC(C)(O)c1cnc2c(F)cc(-c3nc(Nc4ccc(-c5c[nH]cn5)cn4)ncc3F)cc2c1Cl [Example 52] | ≥ 1 µM | ≥ 1 µM | ≥ 1 µM
O[C@@H]1COCC[C@H]1Nc1ncc(Cl)c(-c2cc(F)c3ncc(C4(O)CC4)cc3c2)n1 [Example 29] | 0.1 to 1 µM | ≥ 1 µM | 0.1 to 1 µM
CNC(C)c1cnc2c(F)cc(-c3nc(N[C@@H]4CCOC[C@H]4O)ncc3Cl)cc2c1 (single isomer, unassigned) [Example 32a] | 0.1 to 1 µM | ≥ 1 µM | 0.1 to 1 µM
Cc1nc2c(F)cc(-c3nc(N[C@@H]4CCOC[C@H]4O)ncc3Cl)cc2c2c1CC(C)(C)NC2 [Example 98] | ≥ 1 µM | ≥ 1 µM | 0.1 to 1 µM
O[C@@H]1COCC[C@H]1Nc1ncc(Cl)c(-c2cc(F)c3ncc4c(c3c2)CNCC4)n1 [Example 9, (3S,4R)-4-((5-chloro-4-(7-fluoro-1,2,3,4-tetrahydrobenzo[c][2,6]naphthyridin-9-yl)pyrimidin-2-yl)amino)tetrahydro-2H-pyran-3-ol] | 0.1 to 1 µM | 0.1 to 1 µM | 0.1 to 1 µM

Continued, values first:

IC50 (CDK1/CyclinB) | IC50 (CDK7/CyclinH/MAT1) | IC50 (CDK9/CyclinT1) | Structure (SMILES)
0.1 to 1 µM | 0.1 to 1 µM | 0.1 to 1 µM | Cc1c(C(C)O)cnc2c(F)cc(-c3nc(N[C@@H]4CCOC[C@H]4O)ncc3Cl)cc12 (single isomer, unassigned) [Example 88a]
0.1 to 1 µM | 0.1 to 1 µM | 0.1 to 1 µM | Cc1nc2c(F)cc(-c3nc(N[C@@H]4CCOC[C@H]4O)ncc3F)cc2c(C)c1C(C)O (single isomer, unassigned) [Example 81b]
0.1 to 1 µM | 0.1 to 1 µM | 0.1 to 1 µM | CC1(C)NCc2c(cnc3c(F)cc(-c4nc(N[C@@H]5CCOC[C@H]5O)ncc4F)cc23)C1O (single isomer, unassigned) [Example 106b]
0.1 to 1 µM | ≥ 1 µM | 0.1 to 1 µM | CNC(C)c1cc2cc(-c3nc(N[C@@H]4CCOC[C@H]4O)ncc3Cl)cc(F)c2nc1C (single isomer, unassigned) [Example 45a]
≥ 1 µM | ≥ 1 µM | ≥ 1 µM | Cc1nc2c(F)cc(-c3nc(N[C@@H]4CCOC[C@H]4O)ncc3Cl)cc2c(Cl)c1C(C)O (single isomer, unassigned) [Example 35b]
0.1 to 1 µM | ≥ 1 µM | 0.1 to 1 µM | Cc1nc2c(F)cc(-c3nc(N[C@@H]4CCOC[C@H]4O)ncc3Cl)cc2c(Cl)c1C(C)O (single isomer, unassigned) [Example 35a]
0.1 to 1 µM | ≥ 1 µM | 0.1 to 1 µM | Cc1nc2c(F)cc(-c3nc(N[C@@H]4CCOC[C@H]4O)ncc3Cl)cc2cc1C(C)NC1CC1 (single isomer, unassigned) [Example 73b]
≥ 1 µM | ≥ 1 µM | ≥ 1 µM | CNC(C)c1cc2cc(-c3nc(N[C@@H]4CCOC[C@H]4O)ncc3Cl)cc(F)c2nc1C (single isomer, unassigned) [Example 45b]
– | 0.1 to 1 µM | 0.1 to 1 µM | CC(O)c1cnc2c(F)cc(-c3nc(N[C@@H]4CCOC[C@H]4O)ncc3Cl)cc2c1Cl (single isomer, unassigned) [Example 40a]
